Data: US10544146B2, “Bicyclic compounds and their use as antibacterial agents and β-lactamase inhibitors” (priority 2011, dated 2020)

Assays:
Type in all cases: cell-based
A. baumanii JMI 2659 = assay: MIC, antibacterial and synergistic activity; conditions: substance alone
Experimental: (§1) In the Tables 10-12, compounds of the present invention were tested in combination with various antibiotics against metallo β-lactamase producing bacteria.

E. cloacae JMI 36 = assay: MIC, antibacterial and synergistic activity; conditions: substance alone
Experimental: as §1

E. coli ATCC 25922 = assay: MIC, antibacterial and synergistic activity
Experimental: as §1

E. coli JMI 10767 = assay: MIC, antibacterial and synergistic activity; conditions: substance alone
Experimental: as §1

E. coli JMI 2671 = assay: MIC, antibacterial and synergistic activity; conditions: substance alone
Experimental: as §1

E. coli JMI 2692 = assay: MIC, antibacterial and synergistic activity; conditions: substance alone
Experimental: as §1

K. pneumo JMI 2693 = assay: MIC, antibacterial and synergistic activity; conditions: substance alone
Experimental: as §1

K. pneumo JMI 2697 = assay: MIC, antibacterial and synergistic activity; conditions: substance alone
Experimental: as §1

K. pneumo JMI 2699 = assay: MIC, antibacterial and synergistic activity; conditions: substance alone
Experimental: as §1

P. aerug JMI 149 = assay: MIC, antibacterial and synergistic activity; conditions: substance alone
Experimental: as §1

E. coli JMI 4103 = assay: MIC, antibacterial and synergistic activity; conditions: substance alone
E. coli JMI 4080 = assay: MIC, antibacterial and synergistic activity; conditions: substance alone
E. coli JMI 2665 = assay: MIC, antibacterial and synergistic activity; conditions: for MIC alone: substance alone
K. pneumo JMI 4109 = assay: MIC, antibacterial and synergistic activity; conditions: substance alone
K. pneumo JMI 2673 = assay: MIC, antibacterial and synergistic activity; conditions: substance alone
K. pneumo JMI 2674 = assay: MIC, antibacterial and synergistic activity; conditions: substance alone
K. pneumo JMI 4088 = assay: MIC, antibacterial and synergistic activity; conditions: substance alone
K. pneumo JMI 4106 = assay: MIC, antibacterial and synergistic activity; conditions: K. pneumo JMI 4106, KPC-3, TEM-1, SHV-12, SHV-141; substance alone
K. pneumo JMI 2681 = assay: MIC, antibacterial and synergistic activity; conditions: substance alone
P. aerug JMI 2686 = assay: MIC, antibacterial and synergistic activity; conditions: substance alone
E. coli JMI 10768 = assay: MIC, antibacterial and synergistic activity; conditions: substance alone
E. coli JMI 10770 = assay: MIC, antibacterial and synergistic activity; conditions: substance alone
E. coli JMI 11103 = assay: MIC, antibacterial and synergistic activity; conditions: substance alone
[1] = test system: metallo β-lactamase producing bacteria; assay: MIC in combination with various antibiotics against metallo β-lactamase producing bacteria (Tables 10-12); conditions: substance alone
Experimental: as §1

[2] = K. pneumo JMI 2693, NDM-1 (Cpase)
[3] = K. pneumo JMI 2697, IMP-4 (Cpase)
[4] = K. pneumo JMI 2699, VIM-1, CTX-M3
[5] = K. pneumo JMI 4109, SHV-1, SHV-12
[6] = K. pneumo JMI 2673, CTX-M14 (ESBL)
[7] = K. pneumo JMI 2674, CTX-M15 (ESBL)
[8] = K. pneumo JMI 4088, KPC-3 (Cpase)
[9] = K. pneumo JMI 2681, Oxa-48 (Cpase)
[10] = P. aerug JMI 2686, KPC-2 (Cpase)

SMILES: O=C(NNC(=O)[C@H]1CC[C@H]2CN1C(=O)N2OS(=O)(=O)O)C1CC1 (stereo in doubt) [Ex. 47, (2R,5S)-N′-(cyclopropylcarbonyl)-7-oxo-6-(sulfooxy)-1,6-diazabicyclo[3.2.1]octane-2-carbohydrazide]
- MIC (A. baumanii JMI 2659; Acinetobacter baumannii, JMI2659, A. baumanii JMI 2659, Ges-14 (Cpase)): > 16 µg/mL
- MIC (E. cloacae JMI 36; Enterobacter cloacae, JMI36, E. cloacae JMI 36, P99): > 16 µg/mL
- MIC (E. coli ATCC 25922; Escherichia coli, ATCC25922, E. coli ATCC 25922, enzyme Wt; substance alone): > 16 µg/mL
- MIC (E. coli JMI 10767; Escherichia coli, JMI10767, E. coli JMI 10767, Wt): 8 µg/mL
- MIC (E. coli JMI 2671; Escherichia coli, JMI2671, E. coli JMI 2671, VIM-19 (Cpase)): 8 µg/mL
- MIC (E. coli JMI 2692; Escherichia coli, JMI2692, E. coli JMI 2692, NDM-1, TEM-1, CTX-M-15): 8 µg/mL
- MIC (K. pneumo JMI 2693; [2]): > 16 µg/mL
- MIC (K. pneumo JMI 2697; [3]): > 16 µg/mL
- MIC (K. pneumo JMI 2699; [4]): 16 µg/mL
- MIC (P. aerug JMI 149; P. aerug JMI 149, Bla+++D+): > 16 µg/mL
- MIC (E. coli JMI 4103; Escherichia coli, JMI4103, E. coli JMI 4103, KPC-2, Tem-1, CMY-Type): 2 µg/mL
- MIC (E. coli JMI 4080; Escherichia coli, JMI4080, E. coli JMI 4080, Tem-10): 4 µg/mL
- MIC (E. coli JMI 2665; Escherichia coli, JMI2665, read-out: MIC alone): 2 µg/mL
- MIC (K. pneumo JMI 4109; [5]): 2 µg/mL
- MIC (K. pneumo JMI 2673; [6]): > 16 µg/mL
- MIC (K. pneumo JMI 2674; [7]): > 16 µg/mL
- MIC (K. pneumo JMI 4088; [8]): > 16 µg/mL
- MIC (K. pneumo JMI 4106): 16 µg/mL
- MIC (K. pneumo JMI 2681; [9]): > 16 µg/mL
- MIC (P. aerug JMI 2686; [10]): > 16 µg/mL
- MIC (E. coli JMI 10768; Escherichia coli, JMI10768, E. coli JMI 10768, CTX-M15 (Weak ESBL)): 16 µg/mL
- MIC (E. coli JMI 10770; Escherichia coli, JMI10770, E. coli JMI 10770, CTX-M15 (Hyper ESBL)): 8 µg/mL
- MIC (E. coli JMI 11103; Escherichia coli, JMI11103, E. coli JMI 11103, CTX-M15 (Intermediate ESBL)): 16 µg/mL

SMILES: C[C@@H](O)[C@H]1C(=O)N2C(C(=O)O)=C(S[C@@H]3CN[C@H](C(=O)N(C)C)C3)[C@H](C)[C@H]12 [Meropenem, meropenem]
- MIC alone (A. baumanii JMI 2659; A. baumanii JMI 2659, Ges-14 (Cpase)): 64 µg/mL
- MIC alone (A. baumanii JMI 2659; A. baumanii JMI 2659, enzyme Ges-14 (Cpase)): 64 µg/mL
- MIC alone (E. cloacae JMI 36; E. cloacae JMI 36, P99): ≤1 µg/mL
- MIC alone (E. cloacae JMI 36; E. cloacae JMI 36, enzyme P99): ≤1 µg/mL
- MIC alone (E. coli ATCC 25922; E. coli ATCC 25922, enzyme Wt; substance alone): 0.06 µg/mL
- MIC alone (E. coli ATCC 25922; E. coli ATCC 25922; enzyme Wt; substance alone): 0.06 µg/mL
- MIC alone (E. coli JMI 10767; E. coli JMI 10767, Wt): ≤1 µg/mL
- MIC alone (E. coli JMI 10767; E. coli JMI 10767, enzyme Wt): ≤1 µg/mL
- MIC alone (E. coli JMI 2671; E. coli JMI 2671, VIM-19 (Cpase)): 64 µg/mL
- MIC alone (E. coli JMI 2671; E. coli JMI 2671, enzyme VIM-19 (Cpase)): 64 µg/mL
- MIC alone (E. coli JMI 2692; E. coli JMI 2692, NDM-1, TEM-1, CTX-M-15): 256 µg/mL
- MIC alone (E. coli JMI 2692; E. coli JMI 2692, enzyme NDM-1, TEM-1, CTX-M-15): 256 µg/mL
- MIC alone (K. pneumo JMI 2693; [2]): 8 µg/mL
- MIC alone (K. pneumo JMI 2693; K. pneumo JMI 2693, enzyme NDM-1 (Cpase)): 8 µg/mL
- MIC alone (K. pneumo JMI 2697; [3]): 64 µg/mL
- MIC alone (K. pneumo JMI 2697; K. pneumo JMI 2697, enzyme IMP-4 (Cpase)): 64 µg/mL
- MIC alone (K. pneumo JMI 2699; [4]): 32 µg/mL
- MIC alone (K. pneumo JMI 2699; K. pneumo JMI 2699, enzyme VIM-1, CTX-M3): 32 µg/mL
- MIC alone (P. aerug JMI 149; P. aerug JMI 149, Bla+++D+): 4 µg/mL
- MIC alone (P. aerug JMI 149; P. aerug JMI 149, enzyme Bla+++D+): 4 µg/mL
- MIC alone (E. coli JMI 4103; E. coli JMI 4103, KPC-2, Tem-1, CMY-Type): 64 µg/mL
- MIC alone (E. coli JMI 4103; E. coli JMI 4103, enzyme KPC-2, Tem-1, CMY-Type): 64 µg/mL
- MIC alone (E. coli JMI 4080; E. coli JMI 4080, Tem-10): ≤1 µg/mL
- MIC alone (E. coli JMI 4080; E. coli JMI 4080, enzyme Tem-10): ≤1 µg/mL
- MIC alone (E. coli JMI 2665; E. coli JMI 2665, CMY-2 (Plasmid Cpase)): ≤1 µg/mL
- MIC alone (E. coli JMI 2665; E. coli JMI 2665, enzyme CMY-2 (Plasmid Cpase)): ≤1 µg/mL
- MIC alone (K. pneumo JMI 4109; [5]): ≤1 µg/mL
- MIC alone (K. pneumo JMI 4109; K. pneumo JMI 4109, enzyme SHV-1, SHV-12): ≤1 µg/mL
- MIC alone (K. pneumo JMI 2673; [6]): ≤1 µg/mL
- MIC alone (K. pneumo JMI 2673; K. pneumo JMI 2673, enzyme CTX-M14 (ESBL)): ≤1 µg/mL
- MIC alone (K. pneumo JMI 2674; [7]): ≤1 µg/mL
- MIC alone (K. pneumo JMI 2674; K. pneumo JMI 2674, enzyme CTX-M15 (ESBL)): ≤1 µg/mL
- MIC alone (K. pneumo JMI 4088; [8]): 512 µg/mL
- MIC alone (K. pneumo JMI 4088; K. pneumo JMI 4088, enzyme KPC-3 (Cpase)): 512 µg/mL
- MIC alone (K. pneumo JMI 2681; [9]): 64 µg/mL
- MIC alone (K. pneumo JMI 2681; K. pneumo JMI 2681, enzyme Oxa-48 (Cpase)): 64 µg/mL
- MIC alone (P. aerug JMI 2686; [10]): 512 µg/mL
- MIC alone (P. aerug JMI 2686; P. aerug JMI 2686, enzyme KPC-2 (Cpase)): 512 µg/mL
- MIC alone (E. coli JMI 10768; E. coli JMI 10768, CTX-M15 (Weak ESBL)): ≤1 µg/mL
- MIC alone (E. coli JMI 10768; E. coli JMI 10768, enzyme CTX-M15 (Weak ESBL)): ≤1 µg/mL
- MIC alone (E. coli JMI 10770; E. coli JMI 10770, CTX-M15 (Hyper ESBL)): ≤1 µg/mL
- MIC alone (E. coli JMI 10770; E. coli JMI 10770, enzyme CTX-M15 (Hyper ESBL)): ≤1 µg/mL
- MIC alone (E. coli JMI 11103; E. coli JMI 11103, CTX-M15 (Intermediate ESBL)): ≤1 µg/mL
- MIC alone (E. coli JMI 11103; E. coli JMI 11103, enzyme CTX-M15 (Intermediate ESBL)): ≤1 µg/mL
- MIC alone ([1]; Citrobacter freundii isolate 49469, NDM-1): 16 µg/mL
- MIC alone ([1]; Enterobacter aerogenes isolate 8397, VIM-1): 64 µg/mL
- MIC alone ([1]; Enterobacter aerogenes isolate 47683, VIM-12): 8 µg/mL
- MIC alone ([1]; Enterobacter cloacae isolate 4, VIM-6): 2 µg/mL
- MIC alone ([1]; Enterobacter cloacae isolate 10, IMP-26): 16 µg/mL
- MIC alone ([1]; Enterobacter cloacae isolate 25, IMP-4): 16 µg/mL
- MIC alone ([1]; Enterobacter cloacae isolate 1068, VIM-2): 2 µg/mL
- MIC alone ([1]; Enterobacter cloacae isolate 1471, VIM-1): 2 µg/mL
- MIC alone ([1]; Enterobacter cloacae isolate 1874, IMP-21): 4 µg/mL
- MIC alone ([1]; Enterobacter cloacae isolate 3686, IMP-1): 8 µg/mL
- MIC alone ([1]; Enterobacter cloacae isolate 53477, NDM-1): 32 µg/mL
- MIC alone ([1]; Escherichia coli isolate 13, IMP-1): 4 µg/mL
- MIC alone ([1]; Escherichia coli isolate 17, NDM-1): 32 µg/mL
- MIC alone ([1]; Escherichia coli isolate 49, NDM-1): 8 µg/mL
- MIC alone ([1]; Escherichia coli isolate 53749, NDM-1): 64 µg/mL
- MIC alone ([1]; Klebsiella oxytoca isolate 24825, IMP-26): 32 µg/mL
- MIC alone ([1]; Klebsiella oxytoca isolate 31141, VIM-23): 2 µg/mL
- MIC alone ([1]; Klebsiella pneumoniae isolate 16, VIM-5): 8 µg/mL
- MIC alone ([1]; Klebsiella pneumoniae isolate 38, NDM-1): 32 µg/mL
- MIC alone ([1]; Providencia stuartii isolate 26582, VIM-1): 1 µg/mL
- MIC alone ([1]; Serratia marcescens isolate 35, IMP-4): 8 µg/mL
- MIC alone ([1]; Serratia marcescens isolate 36098, IMP-19): 8 µg/mL
